Assay results from publication PMC11745346 (Proceedings of the National Academy of Sciences of the …, 2024).

Molecular target: Kv1.1 (Homo sapiens, UniProt Q09470)
Assay: two-electrode voltage clamp in Xenopus oocytes, reference opener
Assay type: cell-based

Chain of Kv1.1 (Q09470 whole entry): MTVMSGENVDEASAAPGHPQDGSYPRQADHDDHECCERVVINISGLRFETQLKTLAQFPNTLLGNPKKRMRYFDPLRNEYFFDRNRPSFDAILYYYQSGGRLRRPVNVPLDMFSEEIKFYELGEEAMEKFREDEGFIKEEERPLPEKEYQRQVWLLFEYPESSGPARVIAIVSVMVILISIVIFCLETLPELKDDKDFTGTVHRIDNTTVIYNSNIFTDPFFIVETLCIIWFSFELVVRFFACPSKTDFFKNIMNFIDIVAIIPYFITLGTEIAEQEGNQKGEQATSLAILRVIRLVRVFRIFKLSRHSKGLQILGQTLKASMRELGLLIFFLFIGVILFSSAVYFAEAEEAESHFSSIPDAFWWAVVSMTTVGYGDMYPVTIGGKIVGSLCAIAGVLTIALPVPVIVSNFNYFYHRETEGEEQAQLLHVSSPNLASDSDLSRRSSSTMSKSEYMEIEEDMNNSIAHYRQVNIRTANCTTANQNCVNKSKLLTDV

EC50: 347 µM
Compound: O=C(O)c1cccnc1Nc1cccc(C(F)(F)F)c1 [niflumic acid]
